The record followed here is patent US8461205B2, “Anthranilic acid derivatives” (Chelsea Therapeutics, Inc., priority 2007, dated 2013).

The structures appear in SMILES notation.

Data set [1] relates to human T lymphoblast cell line (Jurkat). The data set can be described thus: Inhibition of T-cell proliferation (Jurkat, 3H-TdR incorporation). Type of data set: cell-based. The settings on record: for IC50: Homo sapiens, Jurkat cells, 3 days culture, 3H-TdR pulse last 4 hours; for inhibitory effect on T-cell proliferation (in words): Jurkat, cf. Table 1. The procedure: Inhibition of T cell proliferation was studied in a functional assay. A human T lymphoblast cell line (Jurkat) was cultured in the presence and absence, respectively, of DHODH inhibiting compounds. Jurkat cells were seeded in microtiterplates at a concentration of 5×10^5/mL in RPMI 1640 growth media supplemented with ultraglutamin, 10% fetal calf serum, 1 mM sodium pyruvat, 10 mM HEPES and 0.1 mg/mL gentamycin. A dilution series of ten different concentrations of inhibitor was added to the wells and the plates were kept in a cell incubator for 3 days. At the beginning of the last 4 hours period, the cultures were pulsed with 10 μl/well 0.1 Ci/mmol 3H-TdR and then harvested on filter papers and counted with a ([…]. The IC50 values for each compound were calculated from the obtained dose response curves. Adding uridine to a concentration of about 50 μM in the wells monitored the specificity for the mechanism i.e., the inhibition of cell proliferation is due to DHODH inhibition and not to a general cell toxicity of the compounds. This addition of uridine reverses the anti-proliferative effect by bypassing the DHODH enzyme using an external source of pyrimidine. Results in respect of a number of compounds of the invention are reported as Jurkat IC50 (in μM) in Table 1.
(§1) The inhibition of T cell proliferation was studied in a human T lymphoblast cell line (Jurkat). The IC50 value for each compound was calculated from the dose response curve. Adding uridine was used to monitor the specificity of the DHODH mechanism. The metabolic stability was studied in human liver microsomes. Table 1 exemplifies the invention, without limiting the scope thereof.

Data set [2] can be described thus: Metabolic stability in human liver microsomes. The format is in vitro ADME. The settings on record: for half-life at 0.5 μM / t1/2: human liver microsomes, 0.5 μM compound, 1 mg/mL protein, 1 mM NADPH, pH 7.4, 37° C., "stable" = no degradation could be confirmed. Here is the method: The metabolic stability of the test compounds was determined using human liver microsomes. Incubations were performed with a compound concentration of 0.5 μM and a protein concentration of 1 mg/mL in 50 mM sodium phosphate buffer at physiological pH (7.4) and temperature (37° C.). The incubation mixture was preincubated at 37° C. prior to addition of NADPH (1 mM, final concentration). At several time points during 60 minutes, aliquots were removed and added to a 96 well plate placed on dry ice and deep-frozen. Samples were analyzed with LC-MS for concentration of parent compound. From the slope of the log [parent compound] vs. incubation time regression line, the in vitro half-life […] was determined. The intrinsic clearance (CLint) can be calculated using a modified Michaelis-Menten relationship, i.e., CLint=ln 2/t1/2. The CLint can then be converted to CL by using the well-stirred model of hepatic extraction. A value of 1.24 L/h/kg of the hepatic blood flow in man can be used. Results with respect to a number of compounds of the invention are reported as t1/2 (in minutes) in Table 1.
as §1

By IC50 is commonly meant the concentration that gives 50% inhibition. High values mean lower potency, low ones higher potency. Usually half-life stands for the time needed for the level to fall by half in the phase considered. The compound `CCC(=O)Nc1ccc(/C=C/c2ccc(F)cc2Cl)cc1C(=O)O` [INV 15, 5-[(E)-2-(2-Chloro-4-fluoro-phenyl)-vinyl]-2-propionylamino-benzoic acid] registered an IC50 in data set [1] of 35 nM. Besides, in data set [2], the half-life at 0.5 μM was 2.28 h.

With `CCC(=O)Nc1ccc(/C=C/c2ccc(F)cc2F)cc1C(=O)O` [INV 14, 5-[(E)-2-(2,4-Difluoro-phenyl)-vinyl]-2-propionylamino-benzoic acid], in data set [1], the concentration for half-maximal inhibition (IC50) stood at 240 nM. Besides, the half-life at 0.5 μM in data set [2] was 3.55 h. For the compound `CCC(=O)Nc1ccc(/C=C/c2ccc(C(F)(F)F)c(F)c2)cc1C(=O)O` [INV 25, 5-[(E)-2-(3-Fluoro-4-trifluoromethyl-phenyl)-vinyl]-2-propionylamino-benzoic acid], the midpoint of inhibition in data set [1], the IC50, lay at 740 nM. Besides, the t1/2 entry in data set [2] is given as “stable”. In data set [1], `CCC(=O)Nc1ccc(OCc2ccc(C(F)(F)F)cc2Br)cc1C(=O)O` [INV 30, 5-(2-Bromo-4-trifluoromethyl-benzyloxy)-2-propionylamino-benzoic acid] showed a concentration for half-maximal inhibition (IC50) of 590 nM. Moreover, the half-life at 0.5 μM in data set [2] was found to be 3.18 h. Taken in the same sequence, the figures for `CCC(=O)Nc1ccc(COc2ccc(Br)c(Cl)c2)cc1C(=O)O` [INV 20, 5-(4-Bromo-3-chloro-phenoxymethyl)-2-propionylamino-benzoic acid] were 730 nM and 1.2 h.

In data set [1], `CCC(=O)Nc1ccc(COc2ccc(Cl)cc2Cl)cc1C(=O)O` [INV 6, 5-(2,4-Dichloro-phenoxymethyl)-2-propionylamino-benzoic acid] came in with an IC50 of 350 nM. Moreover, in data set [2], the half-life at 0.5 μM was 3.32 h. Taken in the same sequence, the figures for `CCC(=O)Nc1ccc(COc2ccc(C(F)(F)F)cc2Br)cc1C(=O)O` [INV 7, 5-(2-Bromo-4-trifluoromethyl-phenoxymethyl)-2-propionylamino-benzoic acid] were 490 nM and 6.8 h.

Turning to `CCC(=O)Nc1ccc(/C=C/c2ccc(Cl)cc2Cl)cc1C(=O)O` [INV 16, 5-[(E)-2-(2,4-Dichloro-phenyl)-vinyl]-2-propionylamino-benzoic acid], the IC50 in data set [1] was 20 nM. Also, in data set [2], the half-life at 0.5 μM was 1.83 h. Taken in the same sequence, the figures for `CCC(=O)Nc1ccc(COc2ccc(F)c(C(F)(F)F)c2)cc1C(=O)O` [INV 17, 5-(4-Fluoro-3-trifluoromethyl-phenoxymethyl)-2-propionylamino-benzoic acid] were 530 nM and 1.73 h. Taken in the same sequence, the figures for `CCC(=O)Nc1ccc(/C=C/c2ccc(Cl)cc2C(F)(F)F)cc1C(=O)O` [INV 13, 5-[(E)-2-(4-Chloro-2-trifluoromethyl-phenyl)-vinyl]-2-propionylamino-benzoic acid] were 50 nM and 1.75 h. `COc1ccc(OC)c(CCc2ccc(NC(C)=O)c(C(=O)O)c2)c1` [REF 9, 2-acetylamino-5-[2-(2,5-dimethoxy-phenyl)-ethyl]-benzoic acid, reference compound]: in data set [1], the half-maximal inhibitory concentration (IC50) stood at 12000 nM and the “inhibitory effect on T-cell proliferation (in words)” value is “very weak inhibitory effect”. In the case of `CCC(=O)Nc1ccc(COc2ccc(Cl)c(C(F)(F)F)c2)cc1C(=O)O` [INV 18, 5-(4-Chloro-3-trifluoromethyl-phenoxymethyl)-2-propionylamino-benzoic acid], the IC50 in data set [1] stood at 840 nM. In addition, the half-life at 0.5 μM in data set [2] worked out at 7.73 h. Taken in the same sequence, the figures for `CCC(=O)Nc1ccc(/C=C/c2ccc(Cl)c(C(F)(F)F)c2)cc1C(=O)O` [INV 24, 5-[(E)-2-(4-Chloro-3-trifluoromethyl-phenyl)-vinyl]-2-propionylamino-benzoic acid] were 570 nM and 5.75 h. Turning to `CCC(=O)Nc1ccc(/C=C/c2ccc(F)c(C(F)(F)F)c2)cc1C(=O)O` [INV 23, 5-[(E)-2-(4-Fluoro-3-trifluoromethyl-phenyl)-vinyl]-2-propionylamino-benzoic acid], the IC50 in data set [1] worked out at 750 nM. The half-life at 0.5 μM in data set [2] came out at 2.45 h. On to `CCC(=O)Nc1ccc(COc2ccc(OC(F)(F)F)c(Cl)c2)cc1C(=O)O` [INV 21, 5-(3-Chloro-4-trifluoromethoxy-phenoxymethyl)-2-propionylamino-benzoic acid], for which the half-inhibitory concentration (IC50) in data set [1] stood at 890 nM. Besides, the half-life at 0.5 μM in data set [2] was 2.8 h.

In the case of `CCC(=O)Nc1ccc(COc2ccc(F)cc2Br)cc1C(=O)O` [INV 8, 5-(2-Bromo-4-fluoro-phenoxymethyl)-2-propionylamino-benzoic acid], in data set [1], the concentration for half-maximal inhibition (IC50) stood at 360 nM. For the same compound, the half-life at 0.5 μM in data set [2] was found to be 5.33 h. Taken in the same sequence, the figures for `CCC(=O)Nc1ccc(COc2ccc(F)cc2C(F)(F)F)cc1C(=O)O` [INV 2, 5-(4-Fluoro-2-trifluoromethyl-phenoxymethyl)-2-propionylamino-benzoic acid] were 580 nM and 3.93 h.

`CCC(=O)Nc1ccc(/C=C/c2ccc(Cl)c(Cl)c2)cc1C(=O)O` [INV 27, 5-[(E)-2-(3,4-Dichloro-phenyl)-vinyl]-2-propionylamino-benzoic acid]: half-maximal inhibition in data set [1] (IC50) required 480 nM. Besides, the half-life at 0.5 μM in data set [2] amounted to 1.92 h. Take `COc1ccc(OC)c(COc2ccc(NC(C)=O)c(C(=O)O)c2)c1` [REF 8, 2-acetylamino-5-(2,5-dimethoxy-benzyloxy)-benzoic acid, reference compound]: in data set [1], half-maximal inhibition (IC50) required 6200 nM and the “inhibitory effect on T-cell proliferation (in words)” value is “only a weak inhibitory effect”. The “oxidation half-life / stability towards oxidation by human P450 (in words)” value in data set [2] (human in vitro system, cf. Table 1) is “short half-life”. As to `CCC(=O)Nc1ccc(COc2ccc(F)cc2Cl)cc1C(=O)O` [INV 5, 5-(2-Chloro-4-fluoro-phenoxymethyl)-2-propionylamino-benzoic acid], the IC50 in data set [1] amounted to 190 nM. Also, the half-life at 0.5 μM in data set [2] was found to be 5.38 h. Regarding `CCC(=O)Nc1ccc(/C=C/c2ccc(C(F)(F)F)cc2C(F)(F)F)cc1C(=O)O` [INV 11, 5-[(E)-2-(2,4-Bis-trifluoromethyl-phenyl)-vinyl]-2-propionylamino-benzoic acid], in data set [1], the IC50 came to 90 nM. The half-life at 0.5 μM in data set [2] stood at 8.15 h.

Compound `CCC(=O)Nc1ccc(COc2ccc(OC(F)(F)F)c(Br)c2)cc1C(=O)O` [INV 22, 5-(3-Bromo-4-trifluoromethoxy-phenoxymethyl)-2-propionylamino-benzoic acid] registered an IC50 in data set [1] of 710 nM. Besides, the half-life at 0.5 μM in data set [2] came to 3.3 h. On to `CCC(=O)Nc1ccc(COc2ccc(C(F)(F)F)cc2C(F)(F)F)cc1C(=O)O` [INV 1, 5-(2,4-Bis-trifluoromethyl-phenoxymethyl)-2-propionylamino-benzoic acid], for which it took 600 nM to reach half-maximal inhibition in data set [1] (IC50). The t1/2 result in data set [2] is “stable”. For the compound `CCC(=O)Nc1ccc(OCc2ccccc2C(F)(F)F)cc1C(=O)OC` [REF 10, 2-Propionylamino-5-(2-trifluoromethyl-benzyloxy)-benzoic acid methyl ester, reference compound], it took 12300 nM to reach half-maximal inhibition in data set [1] (IC50). Turning to `CCC(=O)Nc1ccc(COc2ccc(Cl)cc2Br)cc1C(=O)O` [INV 9, 5-(2-Bromo-4-chloro-phenoxymethyl)-2-propionylamino-benzoic acid], 240 nM corresponded to half-maximal inhibition in data set [1] (IC50). Besides, in data set [2], the half-life at 0.5 μM turned out to be 2.8 h.

Regarding `CCC(=O)Nc1ccc(OCc2ccc(Cl)cc2C(F)(F)F)cc1C(=O)O` [INV 29, 5-(4-Chloro-2-trifluoromethyl-benzyloxy)-2-propionylamino-benzoic acid], in data set [1], half-maximal inhibition (IC50) required 570 nM. Also, the half-life at 0.5 μM in data set [2] worked out at 1.83 h. Taken in the same sequence, the figures for `O=C(O)c1cc(OCc2ccc(Br)cc2C(F)(F)F)ccc1NC(=O)C1CC1` [INV 31, 5-(4-Bromo-2-trifluoromethyl-benzyloxy)-2-(cyclopropanecarbonyl-amino)-benzoic acid] were 420 nM and 3.87 h.

`CCC(=O)Nc1ccc(COc2ccc(F)c(Cl)c2)cc1C(=O)O` [INV 19, 5-(3-Chloro-4-fluoro-phenoxymethyl)-2-propionylamino-benzoic acid] registered a 50% inhibitory concentration (IC50) in data set [1] of 420 nM. In data set [2], the half-life at 0.5 μM worked out at 1.18 h. As for `CCC(=O)Nc1ccc(/C=C/c2ccc(OC(F)(F)F)c(Cl)c2)cc1C(=O)O` [INV 28, 5-[(E)-2-(3-Chloro-4-trifluoromethoxy-phenyl)-vinyl]-2-propionylamino-benzoic acid], in data set [1], inhibition was half-maximal at 600 nM (IC50).
